“And” between values parts separate entries of the source, which are not always exact repeats. Equal values may be shown once. Where a name gives a salt, the structure may show the parent alone.
How the values were obtained:
[1] = test system: Klebsiella pneumoniae AO15200; experiment: Minimum inhibitory concentration (MIC), visible growth; format: cell-based
Protocol: (§1) • 1. Using a sterile inoculating loop, transfer bacteria/Candida albicans from frozen stock culture and streak them on a fresh LA plate. • 2. Incubate the plate at 37° C. overnight (o/n) (18-24 h).
(§2) • 1. Prepare bacterial culture by adding 20 ml Mueller Hinton broth (*) to a 250-ml Erlenmeyer flask with sidearm. • 2. Using a sterile inoculating loop, pick approximately 10 colonies from the o/n bacterial culture and transfer bacteria to the flask. • 3. Incubate the E-flask with bacteria on a rotating shaker at 37° C. until OD590=0.40. This OD should equal an approximate bacterial count of 1×10^8 cfu/ml (**) • This is measured using a colorimeter (or spectrophotometer). Set reference and press R (=reference) first, then measure the bacterial culture by pressing T (=test). • 4. At OD590 0.40, serially dilute the bacterial suspension 1:10 000 in Mueller Hinton broth to obtain a bacterial target concentration of 1×10^4 cfu/ml. Determine the initial inoculation by serially diluting 0.1 ml in 0.9 ml blanks of sterile PBS and plating 0.1 ml aliquots to LA plates, preferably. • 5. Different concentrations of the tested compound are prepared in 0.6-0.8 ml of the final dilution of bacterial suspension and placed in 2-ml test tubes. • 6. Incubate test tubes in an orbital shaker incubator at 37° C. for 24 h.
(§3) • 7. Analyze visible growth, i.e. “Foggy” or “Clear”. MIC is being defined as the interval between the highest “Foggy” and the lowest “Clear” concentration of the compound.
(§4) Different concentrations of PDEA (Example 1) in Mueller Hinton medium were prepared. Bacteria were inoculated to a concentration of 20 000 CFU/ml and incubated at 37° C. for 24 hours. Minimum inhibitory concentrations (MICs) were determined by analyzing visible growth, i.e., readouts were “Clear” and “Foggy”.
(§5) Different concentrations of the quaternary ammonium PDEA (Example 2) in Mueller Hinton medium were prepared. Bacteria were inoculated to a concentration of 20 000 CFU/ml and incubated at 37° C. for 24 hours. Minimum inhibitory concentrations (MICs) were determined by analyzing visible growth, i.e., readouts were “Clear” and “Foggy”.
(§6) Different concentrations of this compound in Mueller Hinton medium were prepared. Bacteria were inoculated to a concentration of 20 000 CFU/ml and incubated at 37° C. for 24 hours. Minimum inhibitory concentrations (MICs) were determined by analyzing visible growth, i.e., readouts were “Clear” and “Foggy”.
(§7) Different concentrations of this compound were prepared in Mueller Hinton broth. Bacteria were inoculated to a concentration of 20 000 CFU/ml and incubated at 37° C. for 24 hours. Minimum inhibitory concentrations (MICs) were determined by analyzing visible growth, i.e., readouts were “Clear” and “Foggy”.

[2] = test system: Pseudomonas aeruginosa PA02; experiment: as above; format: cell-based
Protocol: as §1, §2, §3, §4, §5, §6, §7

[3] = test system: Enterococcus faecium #11 (KI, Clinical Isolate); experiment: as above; format: cell-based
Protocol: as §1, §2, §3, §4, §5, §6, §7

[4] = test system: Staphylococcus aureus B5381; experiment: as above; format: cell-based
Protocol: as §1, §2, §3, §4, §5, §6, §7

[5] = test system: T-24 cells; experiment: Cancer cell viability assay (XTT); format: cell-based, human; details: for % cell survival / Absorbance unit / Absorbance unit - Blank: triplicate, (hydrochloride)
Protocol: (§8) Two types of human uroepithelial cancer cells (124 and 5637) were tested in an XTT assay. “T24” cells were cultured in McCoy's 5A (Modified) Medium, Catalog number: 16600082 from GIBCO. “5637” cells were cultured in RPMI 1640 Medium, Catalog number: 21875034 from GIBCO. Different concentrations of 2-(Pyridyldithio)ethylamine (hydrochloride) (PDEA) (CAS: 106139-15-5): 12.5, 25, 50, 100 and 200 μM, were prepared in each cell culture medium.
(§9) 1. 5×10^5 cells were seeded into 24-well plate overnight at 37-degree C. in 5% CO2.
(§10) 2. 80% confluent cells were treated with 200 μl medium with different concentrations of PDEA and the control.
(§11) 3. After 24 hrs, medium (MacCoy's 5a for T24, RPMI for 5637) was removed and cells were washed 2 times with 200 μl of pre-warmed PBS/well. 200 μl (96-well) of pre-prepared fresh medium containing XTT-menadione to wells were added (mentioned below).
(§12) 4. Cells were incubated for at least 3 h at 37-degree C. Medium with XTT only in empty wells were served as background control.
(§13) 5. The supernatant was transferred to 96-well plate and the concentration were measured at 450 nm and 690 nm. 690 nm was used as a background measurement and subtracted from 450 nm value.
(§14) Menadione (172.18 g/mol, light sensitive): dissolve 1 mg/ml in absolute ethanol. XTT: 1 mg/ml dissolve in PBS, 0.2 μm filtrate sterilised, store at −20° C. (Sigma X4626). Pre-warm to 37° C. before use.
(§15) Prepare solution: Add 2.15 μl of menadione/ml (final concentration 12.5 μM 0 2.15 mg/l) to 1 ml of XTT directly before use. Prepare XTT-menadione solution equal to 20% of the culture medium volume to be tested.
(§16) Results are shown below and represented graphically in FIGS. 1 and 2. “Blank” is cell culture medium only.

[6] = test system: 5637 cells; experiment: Cancer cell viability assay (XTT); format: cell-based, human; details: for % cell survival / Absorbance unit / Absorbance unit - Blank: triplicate, (hydrochloride)
Protocol: as §8, §9, §10, §11, §12, §13, §14, §15, §16

NCCSSc1ccccn1 [PDEA, 2-(Pyridyldithio)ethylamine (hydrochloride)]
visible growth readout ([1]; 0.01 mM): Foggy | visible growth readout ([1]; 0.025 mM): Foggy | visible growth readout ([1]; 0.05 mM): Foggy | visible growth readout ([1]; 0.1 mM): Clear | MIC ([1]; Klebsiella pneumoniae, AO15200, 24 h): 50 to 100 µM | visible growth readout ([2]; 0.05 mM): Foggy | visible growth readout ([2]; 0.1 mM): Foggy | visible growth readout ([2]; 0.2 mM): Clear | visible growth readout ([2]; 0.4 mM): Clear | MIC ([2]; Pseudomonas aeruginosa, PA02, 24 h): 100 to 200 µM | visible growth readout ([3]; 0.01 mM): Foggy | visible growth readout ([3]; 0.025 mM): Foggy | visible growth readout ([3]; 0.05 mM): Clear | visible growth readout ([3]; 0.1 mM): Clear | MIC ([3]; Enterococcus faecium, 24 h): 25 to 50 µM | visible growth readout ([4]; 0.05 mM): Foggy | visible growth readout ([4]; 0.1 mM): Foggy | visible growth readout ([4]; 0.2 mM): Clear | visible growth readout ([4]; 0.4 mM): Clear | MIC ([4]; Staphylococcus aureus, B5381, 24 h): 100 to 200 µM | % cell survival ([5]; 12.5 μM): 99.37% and 98.6% and 99.88% | Absorbance unit ([5]; 12.5 μM): 1.63 and 1.659 and 1.884 | Absorbance unit - Blank ([5]; 12.5 μM): 1.429 and 1.483 and 1.686 | % cell survival ([5]; 25 μM): 100.1391% and 95.0133% and 97.81% | Absorbance unit ([5]; 25 μM): 1.641 and 1.605 and 1.849 | Absorbance unit - Blank ([5]; 25 μM): 1.44 and 1.429 and 1.651 | % cell survival ([5]; 50 μM): 76.43% and 73.67% and 89.6327% | Absorbance unit ([5]; 50 μM): 1.3 and 1.284 and 1.711 | Absorbance unit - Blank ([5]; 50 μM): 1.099 and 1.108 and 1.513 | % cell survival ([5]; 100 μM): 65.3% and 80.52% and 62.09% | Absorbance unit ([5]; 100 μM): 1.14 and 1.387 and 1.246 | Absorbance unit - Blank ([5]; 100 μM): 0.939 and 1.211 and 1.048 | cytotoxicity at 50 µM ([5]; Homo sapiens, T-24, 50 μM PDEA, 24 hrs, read-out: cell viability reduced by): 10 to 26% | cytotoxicity at 200 µM ([5]; Homo sapiens, T-24, 200 μM PDEA, 24 hrs, read-out: cell viability reduced by): 83 to 100% | % cell survival ([6]; 12.5 μM): 104.6875% and 96.65% and 91.2594% | Absorbance unit ([6]; 12.5 μM): 1.229 and 1.224 and 1.119 | Absorbance unit - Blank ([6]; 12.5 μM): 1.072 and 1.069 and 0.971 | % cell survival ([6]; 25 μM): 109.082% and 103.9783% and 102.2556% | Absorbance unit ([6]; 25 μM): 1.274 and 1.305 and 1.236 | Absorbance unit - Blank ([6]; 25 μM): 1.117 and 1.15 and 1.088 | % cell survival ([6]; 50 μM): 115.0391% and 99.55% and 123.5902% | Absorbance unit ([6]; 50 μM): 1.335 and 1.256 and 1.463 | Absorbance unit - Blank ([6]; 50 μM): 1.178 and 1.101 and 1.315 | % cell survival ([6]; 100 μM): 83.4% and 52.8% and 57.42% | Absorbance unit ([6]; 100 μM): 1.011 and 0.739 and 0.759 | Absorbance unit - Blank ([6]; 100 μM): 0.854 and 0.584 and 0.611 | % cell survival ([6]; 200 μM): 3.613% and 3.436% and 4.793% | Absorbance unit ([6]; 200 μM): 0.194 and 0.193 and 0.199 | Absorbance unit - Blank ([6]; 200 μM): 0.037 and 0.038 and 0.051 | cytotoxicity at 100 µM ([6]; Homo sapiens, 100 μM PDEA, 24 hrs, read-out: cell viability reduced by): 17 to 47% | cytotoxicity at 200 µM ([6]; Homo sapiens, 200 μM PDEA, 24 hrs, read-out: cell viability reduced by): 95 to 100%

— US20250339415A1, “DISULFIDE COMPOUNDS AS MEDICAMENTS” (CYTACOAT AB, priority 2021, published 2025)
